Assay results taken from article PMC11945486, “TAS1R2/TAS1R3 Single-Nucleotide Polymorphisms Affect Sweet Taste Receptor Activation by Sweeteners: The SWEET Project” (Nutrients, 2025).
Read-outs that look alike come from different tables or passages of the source. No end group written: not given here.

Target: T1, human TAS1R2-WT/TAS1R3-A5T (Homo sapiens, UniProt Q7RTX0+Q8TE23, A5T)
T1 construct: expressed in transfected cells; host or cells: HEK293T stably expressing Gα16gust44
T1 sequence (Q8TE23 20-839): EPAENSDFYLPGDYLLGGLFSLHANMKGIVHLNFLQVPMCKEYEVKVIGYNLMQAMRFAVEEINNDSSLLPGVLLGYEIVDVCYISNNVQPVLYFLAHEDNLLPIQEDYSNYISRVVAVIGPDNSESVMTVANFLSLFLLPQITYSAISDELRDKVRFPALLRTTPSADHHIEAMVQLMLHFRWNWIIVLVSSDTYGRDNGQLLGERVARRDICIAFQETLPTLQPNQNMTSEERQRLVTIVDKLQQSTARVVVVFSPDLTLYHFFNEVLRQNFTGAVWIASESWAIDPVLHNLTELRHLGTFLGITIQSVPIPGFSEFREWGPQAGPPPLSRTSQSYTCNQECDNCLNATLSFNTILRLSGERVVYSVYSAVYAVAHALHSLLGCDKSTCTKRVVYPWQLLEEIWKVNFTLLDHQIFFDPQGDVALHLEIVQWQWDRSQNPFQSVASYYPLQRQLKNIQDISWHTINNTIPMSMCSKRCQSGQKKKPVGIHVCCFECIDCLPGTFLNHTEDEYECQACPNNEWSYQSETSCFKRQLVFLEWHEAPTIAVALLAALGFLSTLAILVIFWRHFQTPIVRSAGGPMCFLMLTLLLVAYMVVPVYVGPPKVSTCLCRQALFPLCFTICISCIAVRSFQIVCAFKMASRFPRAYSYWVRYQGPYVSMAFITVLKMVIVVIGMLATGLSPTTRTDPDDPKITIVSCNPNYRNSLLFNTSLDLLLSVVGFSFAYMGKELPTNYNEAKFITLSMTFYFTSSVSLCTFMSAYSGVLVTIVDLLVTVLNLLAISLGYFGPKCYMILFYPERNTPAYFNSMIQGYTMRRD
T1 sequence (Q7RTX0 21-852): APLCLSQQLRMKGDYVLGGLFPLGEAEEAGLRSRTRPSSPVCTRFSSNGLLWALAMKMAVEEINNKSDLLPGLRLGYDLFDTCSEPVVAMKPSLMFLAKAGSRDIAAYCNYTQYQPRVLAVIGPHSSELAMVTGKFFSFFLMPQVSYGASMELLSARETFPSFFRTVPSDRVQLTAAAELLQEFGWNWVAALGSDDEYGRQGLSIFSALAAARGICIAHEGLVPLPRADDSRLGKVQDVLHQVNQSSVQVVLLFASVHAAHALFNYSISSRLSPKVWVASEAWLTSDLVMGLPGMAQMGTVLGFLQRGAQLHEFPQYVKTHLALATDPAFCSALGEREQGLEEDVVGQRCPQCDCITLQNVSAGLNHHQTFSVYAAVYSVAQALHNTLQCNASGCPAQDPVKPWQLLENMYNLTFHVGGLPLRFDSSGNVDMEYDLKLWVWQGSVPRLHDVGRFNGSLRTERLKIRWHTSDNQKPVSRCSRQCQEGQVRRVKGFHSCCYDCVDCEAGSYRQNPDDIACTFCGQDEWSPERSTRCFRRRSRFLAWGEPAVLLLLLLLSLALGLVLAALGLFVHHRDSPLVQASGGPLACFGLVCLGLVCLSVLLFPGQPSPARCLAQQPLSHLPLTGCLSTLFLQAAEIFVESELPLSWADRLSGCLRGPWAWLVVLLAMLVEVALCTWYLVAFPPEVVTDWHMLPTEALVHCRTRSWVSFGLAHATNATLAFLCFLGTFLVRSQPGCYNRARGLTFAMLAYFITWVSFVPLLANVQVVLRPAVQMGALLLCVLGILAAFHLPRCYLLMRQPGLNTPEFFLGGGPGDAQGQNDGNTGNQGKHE
Experiment: Calcium mobilisation assay, TAS1R2-WT with TAS1R3 variant A5T
Assay type: cell-based
Details: for Max ΔF/F0: maximal signal amplitude
From the text: The coding sequences for TAS1R2 and TAS1R3 were commercially synthesised, and the human codon was optimised for expression in human cells. The coding sequences of human TAS1R2 and TAS1R3 were subcloned and inserted into the mammalian expression vectors pcDNA6/myc-HisA and pcDNA4/myc-HisA (Invitrogen; Thermo Fisher Scientific; Illkirch, France) between the EcoRI and NotI restriction sites, generating the plasmids pcDNA6-TAS1R2 and pcDNA4-TAS1R3, respectively. To increase protein expression in mammalian cells, an upstream start codon was used, which was a sequence called MAX, corresponding to the QBI SP163 element also described in pcDNA4-HisMax (Invitrogen; Thermo Fisher Scientific; Illkirch, France). To measure the expression level of the receptor by immunohistochemistry, we used the FLAG sequence ([…]) in the C-terminal position, which encodes the FLAG tag epitope. SNP variants of TAS1R2 and TAS1R3 were constructed based on […], respectively, using site-directed mutagenesis (Genewiz; Leipzig, Germany).
The HEK293T cells were kindly provided by Jay P. Slack (Givaudan Flavors Corporation; Cincinnati, OH, USA). HEK293T cells stably transfected with Gα16gust44 [43, 67] were seeded in poly-D-lysine-coated clear-bottom black 96-well plates (0.35 × 10^5 cells/well) in high-glucose DMEM supplemented with 2 mM GlutaMAX, 10% dialysed foetal bovine serum with penicillin/streptomycin and G418 (400 μg/mL) at 37 °C and 6.3% CO2 in a humidified atmosphere as previously reported. […] As a negative control, HEK293T cells were mock-transfected with the empty expression vector. After a further 24 h of incubation, the HEK293T cells were washed with C1 buffer (130 mM NaCl, 5 mM KCl, 10 mM HEPES pH 7.4 and 2 mM CaCl2). The 96-well plates containing the cells were then stimulated with sweet-tasting compounds. […] Different concentration ranges were tested depending on the sweet compound injected. The Ca^2+ changes were expressed as fractional changes in fluorescent light intensity: ΔF/F = (F − F0)/F0, where F was the fluorescent light intensity at each point, and F0 was the value of emitted fluorescent light prior to stimulus application. To calculate dose–response relationships, the changes in fluorescence upon stimulus application were averaged, mock-subtracted and baseline-corrected. The dose–response data obtained were adjusted using a 4-parameter logistic equation. The half-maximal effective concentrations (EC50 values) and maximal signal amplitudes were calculated using SigmaPlot software (version 15.0) (Systat Software; San Jose, CA, USA).
For in vitro calcium mobilisation assay performed on hTAS1R2-SNPs, hTAS1R3-SNPs and mTAS1R3-I60T, 6 to 7 concentrations were tested for each sweet compound, plus buffer alone. All concentration–receptor combinations were measured in duplicate, and each experiment was repeated at least 4 times (8 wells/concentration). Results were expressed for each concentration as ΔF/F mean ± SEM and represented as dose–response curves.

Row | Compound | R1 = Variant EC50/WT EC50 | Max ΔF/F0 | EC50 (read-out: EC50) [µM] | EC50 (brazzein) [µg/mL]
1 | CC1=CC(=O)NS(=O)(=O)O1 [Acesulfame K, acesulfame K] | 1.4 | 0.31 ± 0.01 | 852 ± 34 | –
2 | O=S(=O)(O)NC1CCCCC1 [Cyclamate, cyclamate] | – | – | 1790 ± 35 | –
3 | C[C@H](CC[C@@H](O[C@@H]1O[C@H](CO[C@@H]2O[C@H](CO)[C@@H](O)[C@H](O)[C@H]2O)[C@@H](O)[C@H](O)[C@H]1O[C@@H]1O[C@H](CO)[C@@H](O)[C@H](O)[C@H]1O)C(C)(C)O)[C@H]1CC[C@@]2(C)[C@@H]3CC=C4[C@@H](CC[C@H](O[C@@H]5O[C@H](CO[C@@H]6O[C@H](CO)[C@@H](O)[C@H](O)[C@H]6O)[C@@H](O)[C@H](O)[C@H]5O)C4(C)C)[C@]3(C)[C@H](O)C[C@]12C [Mogroside V, mogroside V] | 1.0 | 0.97 ± 0.01 | 31.3 ± 1 | –
4 | COc1ccc(CCC(=O)c2c(O)cc(O[C@@H]3O[C@H](CO)[C@@H](O)[C@H](O)[C@H]3O[C@@H]3O[C@@H](C)[C@H](O)[C@@H](O)[C@H]3O)cc2O)cc1O [NHDC, neohesperidin dihydrochalcone] | 1.5 | 1.24 ± 0.01 | 76.5 ± 13.1 | –
5 | C=C1C[C@@]23CC[C@H]4[C@@](C)(CCC[C@@]4(C)C(=O)O[C@@H]4O[C@H](CO)[C@@H](O)[C@H](O[C@@H]5O[C@H](CO)[C@@H](O)[C@H](O)[C@H]5O)[C@H]4O[C@@H]4O[C@H](CO)[C@@H](O)[C@H](O)[C@H]4O)[C@@H]2CC[C@]1(O[C@@H]1O[C@H](CO)[C@@H](O)[C@H](O[C@@H]2O[C@H](CO)[C@@H](O)[C@H](O)[C@H]2O)[C@H]1O[C@@H]1O[C@H](CO)[C@@H](O)[C@H](O)[C@H]1O)C3 [Rebaudioside M, rebaudioside M] | 0.7 | 1.06 ± 0.02 | 30.2 ± 1.5 | –
6 | OC[C@H]1O[C@H](O[C@]2(CCl)O[C@H](CCl)[C@@H](O)[C@@H]2O)[C@H](O)[C@@H](O)[C@H]1Cl [Sucralose] | 1.2 | 0.63 ± 0.01 | 135 ± 5 | –
7 | brazzein (QDKCKKVYENYPVSKCQLANQCNYDCKLDKHARSGECFYDEKRNLQCICDYCEY; ends and bridges not checked; cysteine pairing not given here; UniProt P56552 1-54, looked up) [sweet-tasting protein obtained by recombinant production using the yeast Pichia pastoris] | 1.0 | 1.04 ± 0.04 | – | 108.3 ± 11.5

The next lines start with the values.

Row | R1 = Variant EC50/WT EC50 | Max ΔF/F0 | EC50 (read-out: EC50) [µM] | EC50 (brazzein) [µg/mL] | Compound
8 | 1.0 | 0.65 ± 0.01 | 1.18 ± 0.05 | – | COC(=O)[C@H](Cc1ccccc1)NC(=O)[C@H](CC(=O)O)NCCC(C)(C)C [Neotame]
9 | 1.0 | 1.42 ± 0.23 | 13.2 ± 6.4 | – | C=C(C)[C@@H]1CC=C(/C=N/O)CC1 [Perillartine, perillartine]
10 | 0.9 | 0.73 ± 0.04 | 9.7 ± 0.8 | – | thaumatin
